Each structure is given as a SMILES string.

For the series, the system named is aphids (Aphis craccivora). In words: Efficacy/penetration depth into soils: aphid mortality on chickpeas planted in soil zones from a watered soil column. Format: in vivo. Particulars: top 6 cm soil with 0.5 mg/ai TMX, watering rate 255 l/m^2, chickpeas infected with Aphis craccivora, average of multiple experiments. The procedure: The penetration depth of TMX with and without the improvement system was investigated using the test setup described below.
In this connection, a cylinder (diameter approx. 5.5 cm) was filled to approx. 21 cm with liquid-saturated soil. The soil was divided into three zones of 7 cm each, which were called Zone I (uppermost soil layer), Zone II (middle soil layer), and Zone III (bottommost soil layer).
Subsequently, the cylinder was filled up with 6 cm soil that had been mixed once with 0.5 mg/ai TMX (comparison test), and once with 6 cm soil with 0.5 mg/ai TMX and 2 kg/m^2 improvement system (invention example).
The cylinder was now watered (watering rate 255 l/m^2) until the water had reached the bottom, i.e. complete watering had been achieved.
Subsequently, the soil of Zone I (uppermost zone) to Zone III (bottommost zone) was removed, and chickpeas that had been infected with aphids (Aphis craccivora) were planted in the soil. Now the mortality rate of the aphids was measured, as listed in Table I (average values on the basis of multiple experiments).

On to `CN1COCN(Cc2cnc(Cl)s2)/C1=N/[N+](=O)[O-]` [Comparison example, 3-[(2-chloro-1,3-thiazol-5-yl)methyl]-5-methyl-N-nitro-1,3,5-oxadioazinan-4-imine], for which the “mortality rate of the aphids, Zone I” value (Zone I (uppermost soil layer, 7 cm)) was found to be 93%. Also, under “Zone II (middle soil layer, 7 cm)”, the “mortality rate of the aphids, Zone II” value turned out to be 70%. For the same compound, the “mortality rate of the aphids, Zone III” value (Zone III (bottommost soil layer, 7 cm)) stood at 5%.

These data come from US20140227366A1, “CARRIER MATERIAL FOR IMPROVING THE PERSISTANCE OF BIOCIDES” (priority 2011, published 2014).
